Assay [1] addresses T1, Ysc84 SH3 domain (GST-fused) (Saccharomyces cerevisiae, UniProt P32793).
T1 construct: Experiments were carried out on sensor chips with GST-fused SH3 domains and GST as a control; made in house
T1 sequence (P32793 409-468 limits assumed): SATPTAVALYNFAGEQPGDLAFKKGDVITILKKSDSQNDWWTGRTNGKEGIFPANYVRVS
Kind of assay: Surface plasmon resonance (BIAcoreX) dissociation constants of peptides, Ysc84 SH3 domain. The assay is classed as binding. Particulars: Figure 4A; SPR BIAcoreX, GST-SH3 coupled to CM5 chip, GST control; peptides in 10 mM HEPES, 150 mM NaCl, 3.4 mM EDTA, 0.005% P20, pH 7.4, 25°C; steady-state model; read-out: dissociation constant, SH3 DOMAINS YSC84. How it is done:
(§1) Figure 4 Measurement of Dissociation Constants and Correlation with SPOT Intensities (A) Dissociation constants were measured with a BIAcoreX instrument as described in the Materials and Methods. The experiments with the Abp1 SH3 domain were carried out in triplicate. (B) Normalized BLU intensities plotted as a function of the log of the dissociation constant.
(§2) Surface plasmon resonance measurements were carried out with a BIAcoreX instrument (BIAcore, Uppsala, Sweden). Experiments were carried out on sensor chips with GST-fused SH3 domains and GST as a control. […] Interaction analysis was performed at 25°C with the peptides dissolved in 10 mM HEPES, 150 mM NaCl, 3.4 mM EDTA, and 0.005% surfactant P20 (pH 7.4), at 15 μl/min flow rate, using six to seven dilutions, ranging from 500 μM to 65 nM. Dissociation constant values were evaluated by applying the steady-state model using BIAcore evalution 3.1 software.

For assay [2], the target named is T2, Boi2 SH3 domain (GST-fused) (Saccharomyces cerevisiae, UniProt P39969).
T2 construct: Experiments were carried out on sensor chips with GST-fused SH3 domains and GST as a control; made in house
T2 sequence (P39969 43-107 limits assumed): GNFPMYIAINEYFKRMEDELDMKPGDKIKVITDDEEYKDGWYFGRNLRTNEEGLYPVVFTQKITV
The assay is described as follows: Surface plasmon resonance (BIAcoreX) dissociation constants of peptides, Boi2 SH3 domain. The assay is classed as binding. Particulars: Figure 4A; SPR BIAcoreX, GST-SH3 coupled to CM5 chip, GST control; peptides in 10 mM HEPES, 150 mM NaCl, 3.4 mM EDTA, 0.005% P20, pH 7.4, 25°C; steady-state model; read-out: dissociation constant, SH3 DOMAINS BOI2. As for the experimental part:
as §1, §2

For assay [3], the target named is T3, Rvs167 SH3 domain (GST-fused) (Saccharomyces cerevisiae, UniProt P39743).
T3 construct: Experiments were carried out on sensor chips with GST-fused SH3 domains and GST as a control; made in house
The assay is described as follows: Surface plasmon resonance (BIAcoreX) dissociation constants of peptides, Rvs167 SH3 domain. The assay is classed as binding. Particulars: Figure 4A; SPR BIAcoreX, GST-SH3 coupled to CM5 chip, GST control; peptides in 10 mM HEPES, 150 mM NaCl, 3.4 mM EDTA, 0.005% P20, pH 7.4, 25°C; steady-state model; read-out: dissociation constant, SH3 DOMAINS RVS167. As for the experimental part: as §1, §2

Assay [4] concerns the target T4, Yfr024c SH3 domain (GST-fused) (Saccharomyces cerevisiae, UniProt P43603).
T4 construct: Experiments were carried out on sensor chips with GST-fused SH3 domains and GST as a control; made in house
T4 sequence (P43603 400-459 limits assumed): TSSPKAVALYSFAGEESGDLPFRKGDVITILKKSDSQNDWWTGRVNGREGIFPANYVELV
Kind of assay: Surface plasmon resonance (BIAcoreX) dissociation constants of peptides, Yfr024c SH3 domain. Format: binding. The settings on record: Figure 4A; SPR BIAcoreX, GST-SH3 coupled to CM5 chip, GST control; peptides in 10 mM HEPES, 150 mM NaCl, 3.4 mM EDTA, 0.005% P20, pH 7.4, 25°C; steady-state model; read-out: dissociation constant, SH3 DOMAINS YFR024C. As for the experimental part: as §1, §2

The test system of the next assay is Myo5 SH3 domain. Kind of assay: SPOT analysis of cellulose-bound peptides (WISE), Myo5 SH3 domain (Dataset S4). Format: binding, Saccharomyces cerevisiae. Particulars: for The normalized value in BLU units: Myo5 SH3 domain.
Setting [5] is: SPOT analysis of membrane-bound peptides, normalized value (see methods).
Setting [6] is: SPOT analysis of cellulose-bound 14-mer yeast proteome peptides, normalized value, mean where the peptide was synthesized more than once.
Setting [7] is: SPOT analysis of cellulose-bound peptides probed with Myo5 SH3 domain, normalized value.
Setting [8] is: SPOT analysis of membrane-synthesized peptides probed with Myo5 SH3 domain, normalized value.

pKd: −log10 of the molar value. No end group written: not given here.

T3 sequence (P39743 421-482 limits assumed): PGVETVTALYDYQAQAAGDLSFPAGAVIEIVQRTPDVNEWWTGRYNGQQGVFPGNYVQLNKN

Turning to DIKTRSVPKIPSIE [DEM1 DIKTRSVPKIPSIE], the pKd in assay [1], in assay [2], in assay [3] and in assay [4] was below 4.00 throughout. Turning to GKDKSRPPRPPPKP [PK1 GKDKSRPPRPPPKP], the pKd in assay [3] is below 4.00. For the sequence GTTNRGPPPLPPRA [ACF2 GTTNRGPPPLPPRA], the pKd is 5.96 in assay [1], below 4.00 in assay [2], 5.20 in assay [3] and 5.77 in assay [4]. The corresponding values for NAPERAVPILPPRN [YBR108W NAPERAVPILPPRN] are 4.89, below 4.00, 4.25 and 5.38.

On to NIQPDLPPRKIMIP [YBR239C NIQPDLPPRKIMIP], for which the pKd in assay [1] was 4.80; in assay [2], below 4.00; in assay [3], 4.41; in assay [4], 4.66.

Take PQQNRPLPQLPNRN [LAS17 PQQNRPLPQLPNRN]: the pKd was 4.57 in assay [1], below 4.00 in assay [2], 4.49 in assay [3] and 4.72 in assay [4].

As to RAVPILPPRNNVEP [YBR108W RAVPILPPRNNVEP], the pKd in assay [1] was 4.89; in assay [2] it was below 4.00; in assay [3], 4.41; in assay [4] it was 4.85. Regarding RGPPPLPPRANVQP [ACF2 RGPPPLPPRANVQP], the figures for the pKd in assay [1], in assay [2] and in assay [4] were 5.80, below 4.00 and 5.89, respectively. Take RPKRRAPPPVPKKP [YIR003 RPKRRAPPPVPKKP]: the pKd in assay [3] is 4.89. On to RPLPQLPNRNNRPV [LAS17 RPLPQLPNRNNRPV], for which the pKd was 5.02 in assay [1], below 4.00 in assay [2], 4.52 in assay [3] and 5.05 in assay [4]. The matching figures for SGPPLLPPRNTMKN [YJR083C SGPPLLPPRNTMKN]: 5.30, below 4.00, 4.80 and 5.46. The corresponding values for SSPPPLPTRRDHIK [YPR171 SSPPPLPTRRDHIK] are 5.48, below 4.00, 4.80 and 5.32. The corresponding values for STPPTLPPRRIEDP [YMR192 STPPTLPPRRIEDP] are 5.04, below 4.00, 4.55 and 4.96.

In the case of YDLTRFLPNHPGGQ, the “The normalized value in BLU units” value with Myo5 SH3 domain (setting [5]) turned out to be 80.6 BLU. For YEADYVIPVLPGSH, in the assay with Myo5 SH3 domain (setting [6]), the “The normalized value in BLU units” value is 124.6 BLU. YEGPRGAPGMPEML: the “The normalized value in BLU units” value with Myo5 SH3 domain (setting [5]) was 166.5 BLU. Regarding YEGRFWNPENPYKF, in the assay on Myo5 SH3 domain (setting [6]), the “The normalized value in BLU units” value was found to be 162.7 BLU.

Turning to YEKALHFPAGPKST, the “The normalized value in BLU units (SPOT analysis, Myo5 SH3)” value in the assay with Myo5 SH3 domain (setting [7]) was 147.4 BLU.

In the case of YENCHSLPLDPQSP, in the assay with Myo5 SH3 domain (setting [6]), the “The normalized value in BLU units” value is 121.9 BLU. YEQTMKSPKYPSTY: in the assay on Myo5 SH3 domain (setting [7]), the “The normalized value in BLU units (SPOT analysis, Myo5 SH3)” value was 138.4 BLU. As for YEVTFDGPNDPLHP, the “The normalized value in BLU units” value with Myo5 SH3 domain (setting [6]) was 110.9 BLU. Still for that read-out and setting: the result for YFKELPPPSDPSSI reads 164.8 BLU.

As to YFKNMSNPKIPATK, the “The normalized value in BLU units (SPOT analysis, Myo5 SH3)” value in the assay with Myo5 SH3 domain (setting [7]) is given as 127.8 BLU. For the sequence YFVKKIRPGNPLTK, in the assay with Myo5 SH3 domain (setting [5]), the “The normalized value in BLU units” value came to 508.5 BLU. The same measure, in the same setting: with YGDNKKNPESPESV the figure was 147.1 BLU.

Consider YGSEKGSPAGPSAV, for which, in the assay on Myo5 SH3 domain (setting [5]), the “The normalized value in BLU units” value was 50.3 BLU. Turning to YILPKTDPRSPYYI, the “The normalized value in BLU units (SPOT analysis, Myo5 SH3)” value with Myo5 SH3 domain (setting [8]) was found to be 188.5 BLU. On the same count and under the same terms, with YKNRKNLPTIPIRL the figure was 960.6 BLU. In the case of YLLELPDPLIPNDV, the “The normalized value in BLU units (SPOT analysis, Myo5 SH3)” value in the assay on Myo5 SH3 domain (setting [7]) worked out at 162.7 BLU. The same measure, in the same setting: the result for YLNNLAEPLIPLSL reads 222.0 BLU. Same read-out and setting: with YLNSLSEPLVPLAL the figure was 131.6 BLU. On the same count and under the same terms, with YLPHMSRPLGPDEV the figure was 172.0 BLU. As for YLTEFSRPIPPTPS, the “The normalized value in BLU units” value in the assay with Myo5 SH3 domain (setting [6]) is reported as 168.8 BLU. The same measure, in the same setting: with YPAKLRIPETPVKK the figure was 219.9 BLU; with YPEKFQKPYNPLAM, 157.4 BLU. As for YPNGRTLPPVPTQV, the “The normalized value in BLU units” value with Myo5 SH3 domain (setting [5]) was 172.4 BLU. For the sequence YSTNRGIPARPCKD, in the assay with Myo5 SH3 domain (setting [6]), the “The normalized value in BLU units” value came to 271.3 BLU. As to YSYLRLLPWWPSLA, the “The normalized value in BLU units (SPOT analysis, Myo5 SH3)” value in the assay with Myo5 SH3 domain (setting [8]) was 187.6 BLU. On the same count and under the same terms, with YTYSRNEPVIPTKP the figure was 209.5 BLU. In the case of YVKERRPPPPPPLL, the “The normalized value in BLU units” value in the assay on Myo5 SH3 domain (setting [5]) worked out at 15869.6 BLU. As for YVNAKLDPSLPSQY, in the assay with Myo5 SH3 domain (setting [8]), the “The normalized value in BLU units (SPOT analysis, Myo5 SH3)” value was found to be 97.1 BLU.

For the sequence YVNPRNLPSVPNGL, the “The normalized value in BLU units (SPOT analysis, Myo5 SH3)” value in the assay with Myo5 SH3 domain (setting [8]) was 179.8 BLU. On to YVVKKNFPVSPNYT, for which, in the assay on Myo5 SH3 domain (setting [5]), the “The normalized value in BLU units” value was 193.9 BLU. In the case of YVYGRQDPKKPFFT, the “The normalized value in BLU units (SPOT analysis, Myo5 SH3)” value with Myo5 SH3 domain (setting [8]) amounted to 345.2 BLU. Take YWGKKFEPERPFEF: in the assay with Myo5 SH3 domain (setting [8]), the “The normalized value in BLU units (SPOT analysis, Myo5 SH3)” value came to 385.0 BLU. For YWKLFFQPEYPVRM, the “The normalized value in BLU units” value with Myo5 SH3 domain (setting [6]) came out at 144.2 BLU.

With YYYYKHYPNMPPIN, the “The normalized value in BLU units (SPOT analysis, Myo5 SH3)” value in the assay with Myo5 SH3 domain (setting [8]) is recorded as 287.9 BLU.

For the origin of these results see paper PMC314469, “Protein Interaction Networks by Proteome Peptide Scanning” (PLoS Biology, 2004).
